These results are taken from US6673778B1, “Enzyme inhibitors for metabolic redirection” (The Board of Regents of the University of Nebraska, priority 1996, dated 2004).

For one data set, the system named is CYP2B1. The data set is described as follows: PROD assay of liver microsomes (CYP2B1 enzyme activity). The format is in vivo, rat. The note with it: ODN alone. As for the experimental part:
Control rats were injected with saline only.
CYP2B1 enzyme activity was determined by pentoxyresorufin O-dealkylation (PROD) activity (Burke et al., 1985). For each microsomal sample, 1 mg protein in 1 ml 0.1 M potassium phosphate buffer, 1 ml 2 μM 5-pentoxyresorufin (Pierce, Rockford, Ill.), and 17 μl 60 mM NADPH were mixed and incubated for 10 minutes at 37° C. The mixture was then added to a 2 ml cuvette and read on a RF5000U spectrofluorophotometer (Shimadzu, Columbia, Md.), using an excitation wavelength of 530 nm and emission wavelength of 585 nm. Concentrations were calculated from a calibration curve of resorufin standards (Pierce, Rockford, Ill.). Results were recorded in nmol resorufin/mg protein/min.

For the next data set, the system named is rat CYP2B1. In words: Hexobarbital sleep time in rats. Type of data set: in vivo. How it is done:
Male Sprague-Dawley rats (Sasco, Omaha) weighing between 210 to 290 grams were used for all studies. They were housed in animal quarters at the University of Nebraska Medical Center AAALAC-approved Animal Resource Facility. The animals were exposed to 12 hour light/dark cycle and fed Purina rat chow and tap water ad libitum.
(§1) Rats were injected intraperitoneally (i.p.) with the indicated ODNs (see Table 3) once per day for 2 days, in an amount of lmg/kg body weight per injection. Control rats were injected with saline only. Rats in the “PB” groups were injected i.p. with phenobarbital (Mallinckrodt, St. Louis) at 80 mg/kg body weight per injection, once per day for 2 days. In the groups in which PB was co-administered with ODN, injections were administered simultaneously. Total volume of injections for all groups was […]. Animals in the “2B1-NRM+PB+PRETREATMENT” group also received a dose of 1 mg/kg of 2B1-NRM oligomer (SEQ ID NO: 17) 24 hours prior to the first administration of 2B1-NRM plus PB.
Forty-eight hours following the first (non-pretreatment) injection of ODN and/or PB, the rats were injected i.p. with 100 mg/kg body weight hexobarbital (Sigma, St. Louis), in a total volume of 1 ml/kg body weight, prepared fresh daily. Sleep time, defined as the time period from when the rat is placed on its back to when it regains its righting reflex, was measured. Sleep times are given in Table 5 as the mean of each animal in the group ±standard deviation.

In another data set the test system is CYP2B1 mRNA. In words: Melting temperature (Tm) of ODNs used in Example 1. Type of data set: physicochemical, rat. The text has this: The oligo 2B1-ATG (SEQ ID NO: 16) is a 22-mer having 100% complementarity to a region containing the AUG start codon on the rat CYP2B1 mRNA (SEQ ID NO: 39, shown below Table). The oligo 2B1-NRM (SEQ ID NO: 17) has 100% complementarity to the CYP2B1 mRNA starting at base 855. The oligo 2B1-BPB (SEQ ID NO: 36) has the sequence of 2B1-NRM with a two base deletion (indicated in bold in the 2B1-NRM sequence). Each of the oligos 2B1-3MM (SEQ ID NO: 37) and 2B1-CMM (SEQ ID NO: 38) has 2 bases reversed (indicated in bold) compared to the BPB sequence. […] The table gives the melting temperature (Tm), molecular weight, and % homology to CYP2B1 mRNA of each sequence.

The next data set deals with CYP2B1 protein. In words: ELISA for CYP2B1 protein in liver microsomes. The note with it: for HRP activity (CYP2B1 ELISA): liver microsomes. As for the experimental part: as §1
Microsomes were prepared, as described by Franklin and Estabrook (Arch. Biochem. Biophys. 143:318-29, 1971), for determination of enzyme level and activity. The rats were sacrificed using ethyl ether, and livers were perfused with 12 ml of 4% saline via the portal vein and then removed from the animal. The livers were minced, homogenized in 0.25 M sucrose (Sigma) and centrifuged at 8000×G for 20 minutes at 4° C. in a Sorvall RC2-B centrifuge (Dupont). The supernatant was saved, resuspended in 0.25 M sucrose, and centrifuged at 100,000×G for 45 minutes at 4° C. in a Sorvall OTD55B ultracentrifuge (Dupont). The pellet was resuspended in 1.15% KCl (Sigma) and centrifuged at 100,000×G for 1 hour at 4° C. The final pellet was resuspended in an equal volume buffer (10 mM Tris-acetate, 1 mM EDTA, 20% glycerol; Sigma) and frozen at −80° C.
Direct measurement of CYP2B1 protein was performed by an ELISA assay, using an antibody directed to the CYP2B1 protein (Schuurs and Van Weeman, Clin Chim Acta 81(1):1-40, 1977). Fifty μg of microsomal proteins per well were plated in 100 μl 0.35% sodium bicarbonate buffer overnight on a 96 well nunc-immuno plate (InterMed, Skokie, Ill.). The microsomes were washed 3× with 1% bovine serum albumin in PBS (PBS/BSA) and incubated for 1 hr at 37° C. with 200 μl PBS/BSA. The PBS/BSA was removed, and 50 μl of CYP2B1 antibody (Oxygene, Dallas) was added and incubated for 1 hour at 37° C. The microsomes were washed 5× with saline/Tween 20™ (Sigma), and 50 μl horseradish peroxidase (HRP)-conjugated secondary antibody (Bio-Rad) was added. The microsomes were incubated for 1 hour at 37° C., then washed 5× with saline/Tween 20™ and twice with 85% saline. HRP substrate (Kirkegaard & Perry Labs, Gaithersburg, Md.) (100 μl) was added, and the absorbance at 405 nm was read continuously in a microplate reader (Molecular Devices) for 1 hour. Results were recorded as HRP activity in mOD/min.
(In general: In an ELISA, binding on a coated surface is turned into a signal by an enzyme label.)

For another data set, the system named is CYP2E1. The data set is described as follows: Microsomal PNP (p-nitrophenol hydroxylase) activity. The format is in vivo, rat. As to conditions: liver microsomes. How it is done: Microsomal PNP (p-nitrophenol hydroxylase) activity was used as a measure of induction of CYP2E1, as PB is known to induce many different CYPs, including CYP2E1. CYP2E1 activity was determined by PNP activity as described in Reinke and Moyer, Drug Metab. Dispos. 13:548-52, 1985; Koop, Mol. Phannacol. 29:399404, 1986). Activity was recorded as optical density (OD) per milligram of protein per minute.
For orientation: Liver microsomes are vesicles of endoplasmic reticulum, rich in cytochrome P450 enzymes.

Where [1] appears, read: treatment alone (ODN 1 mg/kg or PB 80 mg/kg i.p. once per day for 2 days), hexobarbital 100 mg/kg i.p. at 48 h.
The mark [2] stands for this setting: ODN + PB 80 mg/kg injected simultaneously, 2 days, hexobarbital 100 mg/kg i.p.

Marks after values point to notes of the source that are not given here.

Regarding “2B1-3MM (antisense AAAGAAGAGAGAGCAGGGGA; chemistry not given here)”, the “PROD activity versus control (in words)” value with CYP2B1 is given as “no change from control”. The “Effect on hexobarbital sleep time (in words)” value (from here on “Effect”) in the data set with rat CYP2B1 (ODN alone, versus control) is recorded as “slightly lengthened sleep time over the control”. The “Sleep time, Percent of Control” value in the data set on rat CYP2B1 (treatment alone) was 132.4% of Control. For the same compound, in the data set on rat CYP2B1 (setting [1]), the “Sleep Time (min ± sd)” value turned out to be 31.0 ± 9.6 min. The Tm in the data set on CYP2B1 mRNA was 49.8 °C. Besides, in the data set with CYP2B1 protein (treatment alone), the “HRP activity (CYP2B1 ELISA)” value was determined as 9.2 ± 5.0 mOD/min and the “HRP activity versus control (in words)” value is recorded as “no change in HRP activity over control microsomes”. Moreover, the “PNP activity versus control (in words)” value with CYP2E1 (treatment alone) is on record as “no significant differences in PNP activities from control values”.

With “2B1-ATG (antisense GGAGCAAGATACTGGGCTCCAT; chemistry not given here)”, the “PROD activity versus control (in words)” value with CYP2B1 is “no change from control”. The “Sleep time, Percent of Control” value is given as 82.5% of Control with rat CYP2B1 (ODN + PB) and 87.6% of Control in the data set on rat CYP2B1 (treatment alone). For the same compound, the “Sleep Time (min ± sd)” value was 19.3 ± 4.4^b min in the data set on rat CYP2B1 (setting [2]) and 20.5 ± 5.3 min in the data set with rat CYP2B1 (setting [1]). The “Effect” value in the data set with rat CYP2B1 (ODN + PB, versus PB group) was “sleep time increased significantly over that of the PB group”; in the data set with rat CYP2B1 (ODN alone, versus control), “did not significantly alter sleep time over control”. Besides, the Tm in the data set on CYP2B1 mRNA turned out to be 68.0 °C. The “HRP activity versus PB-alone group (in words)” value in the data set on CYP2B1 protein (ODN + PB) is given as “a significant decrease in HRP activity over the PB-alone group”. Besides, the “HRP activity (CYP2B1 ELISA)” value in the data set on CYP2B1 protein (ODN + PB) worked out at 12.9 ± 5.0 mOD/min; in the data set with CYP2B1 protein (treatment alone), 13.2 ± 4.4 mOD/min. In the data set with CYP2B1 protein (treatment alone), the “HRP activity versus control (in words)” value is listed as “no change in HRP activity over control microsomes”. In addition, the figures for the “PNP activity versus control (in words)” value in the data set with CYP2E1 (ODN + PB) and with CYP2E1 (treatment alone) were “significant increases in PNP activities over that of control” and “no significant differences in PNP activities from control values”, respectively.

Turning to “2B1-CMM (antisense AAAGAAGAGAAGGCAGGGAG; chemistry not given here)”, the “PROD activity versus control (in words)” value in the data set on CYP2B1 was “no change from control”. For the same compound, the “Effect” value in the data set on rat CYP2B1 (ODN alone, versus control) is “did not significantly alter HB sleep time from the control”. Also, the “Sleep time, Percent of Control” value in the data set with rat CYP2B1 (treatment alone) is on record as 98.2% of Control. For the same compound, the “Sleep Time (min ± sd)” value in the data set with rat CYP2B1 (setting [1]) turned out to be 23.0 ± 5.3 min. In the data set on CYP2B1 mRNA, the Tm turned out to be 49.5 °C. In the data set with CYP2B1 protein (treatment alone), the “HRP activity (CYP2B1 ELISA)” value was determined as 10.1 ± 3.3 mOD/min and the “HRP activity versus control (in words)” value is “no change in HRP activity over control microsomes”. The “PNP activity versus control (in words)” value in the data set with CYP2E1 (treatment alone) is listed as “no significant differences in PNP activities from control values”.

For the compound “2B1-NRM (antisense AAAGAAGAGAGAGAGCAGGGAG; chemistry not given here)”, the “PROD activity versus control (in words)” value in the data set on CYP2B1 was “no change from control”. Besides, the “Sleep time, Percent of Control” value in the data set with rat CYP2B1 (ODN + PB) was 57.7% of Control; with rat CYP2B1 (ODN pretreatment + PB), 56.8% of Control; in the data set on rat CYP2B1 (treatment alone), 98.2% of Control. The “Sleep Time (min ± sd)” value was 13.5 ± 0.9 min with rat CYP2B1 (setting [2]); 13.3 ± 3.0 min in the data set with rat CYP2B1 (ODN pretreatment one day before ODN + PB, 2 days, hexobarbital 100 mg/kg i.p.); 23.0 ± 3.2 min in the data set with rat CYP2B1 (setting [1]). The “Effect” value with rat CYP2B1 (ODN + PB, versus PB group) is “no observable antisense effect”; with rat CYP2B1 (ODN alone, versus control), “no effect on sleep time compared to control”; in the data set with rat CYP2B1 (ODN pretreatment + PB), “essentially the same as without pretreatment”. The Tm with CYP2B1 mRNA was found to be 50.6 °C. Besides, the “HRP activity versus PB-alone group (in words)” value with CYP2B1 protein (ODN + PB) and in the data set on CYP2B1 protein (ODN + PB + pretreatment) was “a decrease in HRP activity over that of the PB-alone treatment group” each time. For the same compound, the “HRP activity (CYP2B1 ELISA)” value in the data set on CYP2B1 protein (ODN + PB) is reported as 17.9 ± 4.6 mOD/min; with CYP2B1 protein (ODN + PB/Pretreatment), 18.7 ± 0.3 mOD/min; in the data set with CYP2B1 protein (treatment alone), 13.8 ± 5.6 mOD/min. Besides, the “HRP activity versus control (in words)” value with CYP2B1 protein (treatment alone) was “no change in HRP activity over control microsomes”. The “PNP activity versus control (in words)” value in the data set with CYP2E1 (ODN + PB) is “significant increases in PNP activities over that of control”; in the data set on CYP2E1 (ODN + PB + pretreatment), “significant increases in PNP activities over that of control”; with CYP2E1 (treatment alone), “no significant differences in PNP activities from control values”.

Consider `CCC1(c2ccccc2)C(=O)NC(=O)NC1=O` [Phenobarbital (PB), phenobarbital, reference compound], for which the “Sleep time, Percent of Control” value in the data set with rat CYP2B1 (treatment alone) is 48.7% of Control. Further, the “Sleep Time (min ± sd)” value in the data set with rat CYP2B1 (setting [1]) is recorded as 11.4 ± 4.5^a min; with rat CYP2B1 (treatment alone (ODN 1 mg/kg or PB 80 mg/kg i.p. once per day for 2 days), hexobarbital 100 mg/kg i.p. at 48 h, listed as PB), “about 11.4 min”. Moreover, in the data set with CYP2B1 protein (treatment alone), the “HRP activity (CYP2B1 ELISA)” value was 22.5 ± 4.2 mOD/min. Also, the “HRP activity versus control (in words)” value in the data set with CYP2B1 protein (treatment alone) is reported as “significantly greater than the activity of microsomes from control rats”. In the data set on CYP2E1 (treatment alone), the “PNP activity versus control (in words)” value is on record as “significant increases in PNP activities over that of control”.
